Results: PubChem BioAssay (NCI)
“And” between values parts separate entries of the source, which are not always exact repeats. Identical values can stand only once.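 Step 1: Grow cells in 96-well plates. Step 2: Expose to compound for 48 hours at 5 concentrations. Step 3: Interpolate endpoints linearly; if unreached, use highest concentration. GI50 marks 50% less growth. The concentration for full growth arrest is given as TGI.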

How the values were obtained:
Test in all cases: NCI anticancer screen, dose series, 48 h
IGROV1 ovarian = system: IGROV1 ovarian
CCRF-CEM leukemia = system: CCRF-CEM leukemia
OVCAR-3 ovarian = system: OVCAR-3 ovarian
RPMI-8226 leukemia = system: RPMI-8226 leukemia
A549 NSCLC = system: A549 NSCLC
OVCAR-4 ovarian = system: OVCAR-4 ovarian
CAKI-1 renal = system: CAKI-1 renal
HCT-15 colon = system: HCT-15 colon
COLO 205 colon = system: COLO 205 colon
SK-MEL-2 melanoma = system: SK-MEL-2 melanoma

SMILES | GI50 (IGROV1 ovarian) [µM] | TGI (IGROV1 ovarian) | GI50 (CCRF-CEM leukemia) | GI50 (OVCAR-3 ovarian) [µM] | GI50 (RPMI-8226 leukemia) | TGI (RPMI-8226 leukemia) | GI50 (A549 NSCLC) [µM] | TGI (A549 NSCLC) | GI50 (OVCAR-4 ovarian) [µM] | TGI (OVCAR-4 ovarian) | TGI (CAKI-1 renal) [µM] | GI50 (HCT-15 colon) [µM] | TGI (HCT-15 colon) [µM] | GI50 (COLO 205 colon) [µM] | TGI (COLO 205 colon) | TGI (SK-MEL-2 melanoma) | TGI (CCRF-CEM leukemia) | TGI (OVCAR-3 ovarian) | GI50 (CAKI-1 renal) [µM] | GI50 (SK-MEL-2 melanoma) [µM]
C/C(=N\NC(=S)N1CCC1)c1ccccn1 | 0.00798 | 22.7 µM | 0.00658 µM | 0.00157 | 0.00499 µM | > 63.5 µM | 0.0527 | 37.5 µM | 0.00312 | > 56.7 µM | 75.3 | 0.00336 | 45.4 | 0.00486 | > 100 µM | 33.3 µM | – | – | – | –
NC1=NC(c2ccccc2Cl)c2c(n[nH]c2N)N1 (stereo unspecified) | 9.48 | > 100 µM | 4.59 µM | 32.1 | 42.9 µM | > 100 µM | 6.96 | > 100 µM | > 100 | > 100 µM | > 100 | 30.8 | > 100 | 23.9 | > 100 µM | > 100 µM | > 100 µM | > 100 µM | 10.9 | 65.3
O=C([O-])c1ccc([I+]c2ccccc2)cc1 | – | > 100 µM | – | – | – | > 100 µM | – | > 100 µM | – | > 100 µM | > 100 | – | > 100 | – | > 100 µM | > 100 µM | > 100 µM | > 100 µM | – | –
O=C(CI)NC(=O)NC(=O)NCc1ccccc1 | 2.56 | 6.83 µM | 0.51 µM | 1.82 | 3.2 µM | 9.71 µM | 18.7 | 42.8 µM | 4.42 | 31 µM | 3.12 | 2.03 | 4.94 | 2.13 | 4.64 µM | 21.6 µM | 2.14 µM | 3.37 µM | 1.69 | 7.5
CC[n+]1c(-c2ccccc2)c2cc(N)ccc2c2ccc(N)cc21 | 0.522 | 10.2 µM and 12.9 µM | 2.15 µM and 1.2 µM and 4.94 µM | 1.61 | 2.23 µM and 1.02 µM and 2.64 µM | > 100 µM and 10.4 µM and 24.3 µM | 2.17 | 48.3 µM and 76.7 µM and > 95.1 µM | 0.705 | 3.99 µM and 29.5 µM and 36 µM | > 100 | 39.6 | > 100 | 0.612 | 2.24 µM and 7.14 µM | 3.8 µM and 6.55 µM | 77 µM and 33 µM and 48.3 µM | 9.84 µM and 20.4 µM and 15 µM | 66.2 | 1.11
COc1cc([C@@H]2c3cc4c(cc3[C@H](SC(=N)N)[C@H]3COC(=O)[C@H]23)OCO4)cc(OC)c1OC | 0.227 | 4.66 µM | 0.299 µM | 0.0767 | 0.409 µM | 32 µM | 0.305 | > 100 µM | 0.683 | > 100 µM | 17.3 | 0.321 | > 100 | 0.198 | 0.422 µM | > 100 µM | > 100 µM | 0.35 µM | 0.249 | 5.78
COS(=O)c1cc(Cl)cc(Cl)c1OC(=O)CSSCC(=O)Oc1c(Cl)cc(Cl)cc1S(=O)OC (stereo unspecified) | – | 46.5 µM | – | – | – | 38.3 µM | – | 47.2 µM | – | 51.6 µM | 63.1 | – | 45.1 | – | 44.8 µM | 51.4 µM | 59.7 µM | 86.4 µM | – | –
O=C1C=CC2(O)OCC3C=C4O[C@@H]5OC6(CCCCC6)O[C@@H]5C4[C@@H]2[C@@H]13 (stereo partly specified) | – | > 100 µM | – | – | – | 58.9 µM | – | > 100 µM | – | 59.9 µM | 48.9 | – | 58.7 | – | 30.9 µM | > 100 µM | 45.8 µM | 52.2 µM | – | –
CCN1C(=O)N(CC)C2C1NC(=S)N2/N=C/C=C/c1ccccc1 (stereo unspecified) | 0.142 | > 100 µM | 0.128 µM | 0.0425 | 0.183 µM | > 64.2 µM | 0.176 | > 100 µM | 3.31 | > 100 µM | > 100 | 0.0849 | > 100 | 0.213 | 5.44 µM | > 100 µM | > 100 µM | > 100 µM | 0.0719 | 0.661
O=C1Nc2ccc(-c3cccnc3)cc2/C1=C/c1cc(Br)c(O)c(Br)c1 | 7.09 | > 25 µM | 5.43 µM | 5.05 | 5.38 µM | 19.7 µM | 8.05 | > 25 µM | 14.8 | > 25 µM | > 23.7 | 6.8 | > 25 | 11.8 | > 25 µM | 6.85 µM | > 25 µM | 12.8 µM | 4.83 | 3.11
